According to patent US20230364119A1, “AUTOPHAGY ACTIVATOR” (Resonac Corporation, priority 2020, published 2023):

What was measured:
Format in all cases: cell-based
[1] = system: ATG5 gene; test: ATG5 gene expression promoting effect in human neuroblastoma in the presence of amyloid β
Method: (§1) In the presence of an autophagy activator, the expression levels of the LC3 gene, ATG5 gene, and Beclin 1 gene in human neuroblastoma (SH-SY5Y; obtained from ATCC) were measured by the following test method, and the effect of promoting the expression of the LC3 gene, ATG5 gene, and Beclin 1 gene by an autophagy activator was evaluated.
(§2) In the following examples and comparative examples, tests were performed by adding amyloid β, which is known to cause a decrease in autophagy in nerve cells, to each medium.
(§3) SH-SY5Y cells were prepared at a seeding density of 10000 cells/cm^2 and cultured for 24 hours in D-MEM medium/Ham's F-12 medium (manufactured by Sigma-Aldrich) to which 10% fetal bovine serum (manufactured by MP Biomedicals) was added. Next, in Example 15, the inositol derivative A dissolved in purified water was added to the medium such that the final concentration of the inositol derivative A was 10-4% (V/V). […]
(§4) Then, using Nucleospin (registered trademark) RNA kit (manufactured by Takara Bio Inc.), RNA was extracted from SH-SY5Y cells in each example, and cDNA was synthesized from the obtained RNA. Next, using this cDNA as a template, by quantitative real-time PCR, the expression level of each gene was quantified using primers (manufactured by Takara Bio Inc.) specific to the LC3 gene, ATG5 gene, and Beclin 1 gene, respectively. […]

[2] = system: Beclin 1 gene; test: Beclin 1 gene expression promoting effect in human neuroblastoma in the presence of amyloid β
Method: as §1, §2, §3, §4

[3] = system: human neuroblastoma (SH-SY5Y); test: Apoptosis suppressing action caused by amyloid β in human neuroblastoma (Hoechst 33342 staining)
Method: The proportion of apoptotic cells in human neuroblastoma (SH-SY5Y; obtained from ATCC) in the presence of an autophagy activator was measured by the following test method to evaluate the apoptosis suppressing action of the autophagy activator.
In the following examples and comparative examples, tests were performed by adding amyloid β, which is known to induce cell death called apoptosis of nerve cells due to a decrease in autophagy, to each medium.
SH-SY5Y cells were prepared at a seeding density of 50000 cells/cm^2 and cultured for 24 hours in D-MEM medium/Ham's F-12 medium (manufactured by Sigma-Aldrich) to which 10% fetal bovine serum (manufactured by MP Biomedicals) was added. […]
Thereafter, an aqueous solution of 10 μM Hoechst 33342 (manufactured by Sigma-Aldrich) was added to each SH-SY5Y cell from which the medium was removed, and the cells were allowed to stand at room temperature (25° C.) for 10 minutes. After removing the solution, each SH-SY5Y cell was washed with phosphate buffer (PBS, manufactured by FUJIFILM Wako Pure Chemical Corporation), and with a fluorescence microscope, the number of cells showing strong apoptosis-like Hoechst fluorescence due to chromatin aggregation (Hoechst (+) cells) was counted. […] For each example, relative values were calculated when the proportion of apoptotic cells in Reference Example 4 was set to 1.00, and the results are shown in Table 7.

[4] = SH-SY5Y cells with amyloid β, compared to Reference Example 3 (purified water only, no amyloid β)
[5] = SH-SY5Y cells, 20 μM amyloid β present, 48 hours, 10^−3% (V/V) inositol or inositol derivative A, with the vitamin derivative of the example where added, Reference Example 3 (purified water, no amyloid β) = 1.00

`O[C@H]1[C@H](O)[C@@H](O)[C@H](O)[C@@H](O)[C@H]1O` [Comparative Example 2, myo-inositol] was tested, and the “expression level of the ATG5 gene, in words” value [1, 4] was “slightly increased”, the “Relative gene expression level ATG5” value [1, 5] was 1.39 and the “expression level of the Beclin 1 gene, in words” value [2, 4] was “slightly increased”. The “Relative gene expression level Beclin 1” value [2, 5] was 1.31, the “proportion of apoptotic cells, in words” value ([3]; SH-SY5Y cells with amyloid β, compared to Comparative Example 7 (purified water and amyloid β)) was “almost the same” and the “Proportion of apoptotic cells” value ([3]; SH-SY5Y cells, 30 μM amyloid β present, 48 hours, 10^−3% (V/V) inositol or inositol derivative A, with the vitamin derivative of the example where added, relative value, Reference Example 4 (purified water, no amyloid β) = 1.00) was 3.98.
